Laboratory results reported in ChEMBL document CHEMBL1201862, “PubChem BioAssay data set” (2004).
Activity calls are given as the source filed them.

Legend:
[1] = target: T1, Sentrin-specific protease 7 (Homo sapiens, UniProt Q9BQF6); assay type: functional;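 note: Luminescence-based dose-response confirmation of ultra-high-throughput screening hits, measuring inhibition of SENP7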
T1 sequence (Q9BQF6 whole entry): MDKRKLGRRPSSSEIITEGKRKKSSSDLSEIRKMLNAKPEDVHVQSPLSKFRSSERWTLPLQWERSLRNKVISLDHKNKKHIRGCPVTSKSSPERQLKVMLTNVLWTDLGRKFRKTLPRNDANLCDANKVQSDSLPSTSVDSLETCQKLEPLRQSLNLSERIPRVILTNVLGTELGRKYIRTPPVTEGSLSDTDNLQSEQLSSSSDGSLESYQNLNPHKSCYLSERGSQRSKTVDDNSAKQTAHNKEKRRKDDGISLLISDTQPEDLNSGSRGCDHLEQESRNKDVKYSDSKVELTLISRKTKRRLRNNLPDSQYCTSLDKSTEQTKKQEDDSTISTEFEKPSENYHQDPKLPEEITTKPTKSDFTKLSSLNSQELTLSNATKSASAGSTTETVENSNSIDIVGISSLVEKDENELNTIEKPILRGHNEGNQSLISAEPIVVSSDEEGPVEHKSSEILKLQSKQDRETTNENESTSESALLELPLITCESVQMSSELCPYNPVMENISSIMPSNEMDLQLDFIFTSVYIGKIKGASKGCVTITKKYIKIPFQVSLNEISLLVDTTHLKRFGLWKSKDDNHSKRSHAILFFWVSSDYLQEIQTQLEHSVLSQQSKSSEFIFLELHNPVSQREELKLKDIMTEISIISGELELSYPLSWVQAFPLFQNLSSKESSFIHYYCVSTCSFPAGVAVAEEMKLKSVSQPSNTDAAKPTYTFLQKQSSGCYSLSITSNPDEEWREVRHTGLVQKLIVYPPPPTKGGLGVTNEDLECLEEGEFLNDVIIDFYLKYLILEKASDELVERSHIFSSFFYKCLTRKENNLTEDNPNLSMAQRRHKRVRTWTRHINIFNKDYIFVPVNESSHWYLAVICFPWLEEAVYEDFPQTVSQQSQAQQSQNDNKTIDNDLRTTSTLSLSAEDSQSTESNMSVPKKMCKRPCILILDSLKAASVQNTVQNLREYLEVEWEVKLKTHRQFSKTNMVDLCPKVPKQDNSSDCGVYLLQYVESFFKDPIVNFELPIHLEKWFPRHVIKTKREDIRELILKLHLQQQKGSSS

[2] = target: T2, Sentrin-specific protease 6 (Homo sapiens, UniProt Q9GZR1); assay type: functional;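 note: Luminescence-based dose-response confirmatory assay of SENP6 inhibition, following up an ultra-high-throughput screen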
T2 sequence (Q9GZR1 whole entry): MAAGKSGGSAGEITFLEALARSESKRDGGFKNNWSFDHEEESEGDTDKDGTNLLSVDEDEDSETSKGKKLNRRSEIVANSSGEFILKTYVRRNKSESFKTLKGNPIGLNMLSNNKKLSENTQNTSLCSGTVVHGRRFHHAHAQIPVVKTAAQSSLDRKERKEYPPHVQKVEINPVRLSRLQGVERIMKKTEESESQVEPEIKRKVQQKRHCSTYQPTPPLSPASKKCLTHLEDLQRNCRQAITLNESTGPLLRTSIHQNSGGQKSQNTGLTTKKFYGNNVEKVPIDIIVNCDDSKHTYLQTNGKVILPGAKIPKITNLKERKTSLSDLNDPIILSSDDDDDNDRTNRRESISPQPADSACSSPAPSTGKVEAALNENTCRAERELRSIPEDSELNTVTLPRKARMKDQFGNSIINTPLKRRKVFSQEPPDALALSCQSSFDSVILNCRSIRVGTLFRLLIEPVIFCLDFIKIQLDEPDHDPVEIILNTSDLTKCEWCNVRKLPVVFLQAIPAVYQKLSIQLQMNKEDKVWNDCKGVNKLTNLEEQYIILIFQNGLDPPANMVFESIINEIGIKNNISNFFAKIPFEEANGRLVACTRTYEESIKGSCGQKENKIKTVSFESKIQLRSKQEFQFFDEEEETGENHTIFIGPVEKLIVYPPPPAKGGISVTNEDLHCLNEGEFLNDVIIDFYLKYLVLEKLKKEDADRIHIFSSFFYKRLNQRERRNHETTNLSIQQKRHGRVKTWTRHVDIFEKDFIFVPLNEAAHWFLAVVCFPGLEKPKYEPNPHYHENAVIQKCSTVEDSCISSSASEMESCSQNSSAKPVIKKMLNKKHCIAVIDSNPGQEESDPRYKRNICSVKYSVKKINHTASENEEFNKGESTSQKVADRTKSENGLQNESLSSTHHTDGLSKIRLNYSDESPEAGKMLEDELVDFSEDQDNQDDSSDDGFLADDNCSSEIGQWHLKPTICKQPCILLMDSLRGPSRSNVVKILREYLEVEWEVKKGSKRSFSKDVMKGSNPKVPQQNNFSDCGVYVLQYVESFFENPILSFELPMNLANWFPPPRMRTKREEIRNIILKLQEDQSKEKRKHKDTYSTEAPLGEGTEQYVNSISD

Caspase-3 = target: T3, Caspase-3 (Homo sapiens, UniProt P42574); assay type: functional;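 note: Dose-response selectivity test against caspase-3 for candidate inhibitors of sentrin-specific proteases (SENPs)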
T3 sequence (P42574 whole entry): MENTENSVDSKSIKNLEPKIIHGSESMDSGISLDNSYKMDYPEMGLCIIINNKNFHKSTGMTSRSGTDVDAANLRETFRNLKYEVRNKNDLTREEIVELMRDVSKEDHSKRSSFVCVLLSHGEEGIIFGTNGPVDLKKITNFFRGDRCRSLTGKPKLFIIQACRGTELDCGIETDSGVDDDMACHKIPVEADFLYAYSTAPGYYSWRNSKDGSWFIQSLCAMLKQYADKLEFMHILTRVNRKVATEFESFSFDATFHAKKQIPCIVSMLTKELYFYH

[3] = target: T4, Sentrin-specific protease 8 (Homo sapiens, UniProt Q96LD8); assay type: functional;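 note: luminescence read-out of SENP8 inhibition, dose-response confirmation following an ultra-high-throughput screen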
T4 sequence (Q96LD8 whole entry): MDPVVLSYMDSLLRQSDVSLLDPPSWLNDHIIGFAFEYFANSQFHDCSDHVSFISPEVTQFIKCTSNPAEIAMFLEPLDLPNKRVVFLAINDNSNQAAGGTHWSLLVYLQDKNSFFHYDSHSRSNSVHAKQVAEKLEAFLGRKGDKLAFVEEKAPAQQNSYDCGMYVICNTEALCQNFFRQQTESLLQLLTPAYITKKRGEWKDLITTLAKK

[4] = target: T5, Calpain-2 catalytic subunit (Sus scrofa, UniProt P43367); test: pig calpain II inhibitor potency, dose response, biochemical, fluorogenic peptide substrate (AID 1420); assay type: functional
T5 sequence (P43367 whole entry): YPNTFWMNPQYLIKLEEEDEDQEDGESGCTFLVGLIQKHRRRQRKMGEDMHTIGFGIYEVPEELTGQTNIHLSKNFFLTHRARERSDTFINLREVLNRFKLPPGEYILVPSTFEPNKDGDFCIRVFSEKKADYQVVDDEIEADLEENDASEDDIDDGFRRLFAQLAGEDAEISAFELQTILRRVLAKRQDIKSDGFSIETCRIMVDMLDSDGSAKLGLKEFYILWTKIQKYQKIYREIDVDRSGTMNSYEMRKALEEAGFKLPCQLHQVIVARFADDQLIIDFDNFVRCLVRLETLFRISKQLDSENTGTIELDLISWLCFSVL

[5] = Shn3 3'UTR reporter inhibitors, dose response, cell-based, Clone20 osteoblasts, firefly luciferase, cherry-picked (AID 624132); assay type: functional;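 note: firefly luciferase luminescence from reporter carrying the Shn3 3'UTR in osteoblasts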
HEK293 = test: inhibitors of LMP1-driven NF-kB reporter, dose response, cell-based, HEK293, luciferase, cherry-pick (AID 588343); assay type: functional; conditions: Homo sapiens
[6] = HepG2 cell cytotoxicity, dose response, cytotoxicity control for Shn3 inhibitor project, CellTiter-Glo, cherry-picked (AID 624134); assay type: functional, cell-based
[7] = control 3'UTR Renilla luciferase suppression, dose response, counter-screen for Shn3 inhibitor project, cell-based, Clone20-Shn3RL, cherry-picked (AID 624133); assay type: functional
[8] = Counterscreen for inhibitors of Trypanosoma brucei methionyl tRNA synthetase (MetRS): Luminescence-based cell-based high throughput dose response assay to identify compounds that are cytotoxic to Jurkat human T lymphocyte cells.; assay type: functional
[9] = target: T6, Methionyl-tRNA synthetase, putative (Trypanosoma brucei brucei, UniProt Q38C91); assay type: functional, Trypanosoma brucei brucei strain 927/4 GUTat10.1;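 note: Read-out by fluorescence polarization, run as a confirmatory high-throughput counterscreen; potency of MetRS inhibitors measured by reduced AMP formation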
T6 sequence (Q38C91 whole entry): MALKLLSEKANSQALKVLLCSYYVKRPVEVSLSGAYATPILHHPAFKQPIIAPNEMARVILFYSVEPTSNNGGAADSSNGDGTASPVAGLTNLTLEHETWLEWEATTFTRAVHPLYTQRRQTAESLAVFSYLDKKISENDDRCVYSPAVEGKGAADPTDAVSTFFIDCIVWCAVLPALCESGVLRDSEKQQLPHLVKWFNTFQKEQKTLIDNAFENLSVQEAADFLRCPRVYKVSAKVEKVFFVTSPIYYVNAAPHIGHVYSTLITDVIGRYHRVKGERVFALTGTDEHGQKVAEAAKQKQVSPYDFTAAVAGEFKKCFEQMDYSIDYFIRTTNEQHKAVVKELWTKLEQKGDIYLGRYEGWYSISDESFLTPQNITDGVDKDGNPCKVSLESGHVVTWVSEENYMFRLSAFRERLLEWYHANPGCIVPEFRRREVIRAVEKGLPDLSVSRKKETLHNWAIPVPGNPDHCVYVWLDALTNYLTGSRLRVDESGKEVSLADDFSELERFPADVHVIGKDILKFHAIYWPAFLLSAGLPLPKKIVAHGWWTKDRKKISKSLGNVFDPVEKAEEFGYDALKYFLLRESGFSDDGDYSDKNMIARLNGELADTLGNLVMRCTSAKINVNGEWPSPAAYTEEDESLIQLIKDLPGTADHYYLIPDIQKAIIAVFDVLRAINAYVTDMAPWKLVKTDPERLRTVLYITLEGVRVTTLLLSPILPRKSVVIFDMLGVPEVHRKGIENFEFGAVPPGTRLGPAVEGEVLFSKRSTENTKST

Streptokinase A = target: T7, Streptokinase A (Streptococcus pyogenes serotype M1, UniProt P10520); test: S. pyogenes streptokinase expression inhibitors, potency, dose response, plasminogen activation absorbance, OD405 (AID 1914); assay type: functional, Streptococcus pyogenes M1 GAS;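 note: secreted streptokinase activity via plasminogen activation per viability signal from cell pellet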
T7 sequence (P10520 whole entry): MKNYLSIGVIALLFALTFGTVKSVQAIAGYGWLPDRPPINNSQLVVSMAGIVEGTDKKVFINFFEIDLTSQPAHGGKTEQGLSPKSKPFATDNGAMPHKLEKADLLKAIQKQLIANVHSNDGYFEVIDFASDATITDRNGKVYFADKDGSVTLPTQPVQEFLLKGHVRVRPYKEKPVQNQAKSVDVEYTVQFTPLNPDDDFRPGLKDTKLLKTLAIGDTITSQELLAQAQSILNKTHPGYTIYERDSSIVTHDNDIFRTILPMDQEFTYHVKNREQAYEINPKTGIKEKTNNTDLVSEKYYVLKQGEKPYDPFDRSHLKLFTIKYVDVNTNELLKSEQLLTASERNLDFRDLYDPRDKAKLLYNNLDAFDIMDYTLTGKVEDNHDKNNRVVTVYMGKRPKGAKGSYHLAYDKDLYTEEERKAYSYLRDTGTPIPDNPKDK

Genome polyprotein = Genome polyprotein (dengue virus type 2, UniProt P29990); test: Dengue-2 NS5 methyltransferase inhibitors, primary screen, biochemical, confirmation dose response (AID 588689); assay type: functional
Sequence of Genome polyprotein (P29990 2492-3391 limits assumed): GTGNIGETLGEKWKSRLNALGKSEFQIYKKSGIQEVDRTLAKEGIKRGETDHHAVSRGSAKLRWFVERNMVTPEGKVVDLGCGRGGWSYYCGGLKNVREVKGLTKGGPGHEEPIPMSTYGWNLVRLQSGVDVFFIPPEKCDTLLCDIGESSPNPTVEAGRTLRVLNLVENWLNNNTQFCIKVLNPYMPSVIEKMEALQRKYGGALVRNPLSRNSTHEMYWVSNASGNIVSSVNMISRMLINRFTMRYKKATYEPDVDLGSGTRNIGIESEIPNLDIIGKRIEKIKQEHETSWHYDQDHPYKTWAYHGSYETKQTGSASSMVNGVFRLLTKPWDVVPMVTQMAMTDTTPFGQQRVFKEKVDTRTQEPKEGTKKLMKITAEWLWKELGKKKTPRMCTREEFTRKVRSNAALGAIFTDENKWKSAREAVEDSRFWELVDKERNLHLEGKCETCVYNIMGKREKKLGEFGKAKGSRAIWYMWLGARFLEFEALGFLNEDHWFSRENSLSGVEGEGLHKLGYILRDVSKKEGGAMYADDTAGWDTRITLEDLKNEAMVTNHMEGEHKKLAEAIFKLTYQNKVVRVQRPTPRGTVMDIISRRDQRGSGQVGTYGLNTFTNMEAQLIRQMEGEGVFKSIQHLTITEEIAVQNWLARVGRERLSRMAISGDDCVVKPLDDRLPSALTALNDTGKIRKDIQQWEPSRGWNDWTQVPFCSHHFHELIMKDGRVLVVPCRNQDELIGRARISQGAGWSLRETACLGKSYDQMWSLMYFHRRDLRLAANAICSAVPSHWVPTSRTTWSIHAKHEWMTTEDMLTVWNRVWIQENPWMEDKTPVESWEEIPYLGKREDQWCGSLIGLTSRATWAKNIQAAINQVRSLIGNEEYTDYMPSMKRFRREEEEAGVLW

Streptococcus = test: Group A Streptococcus viability loss, dose response, counter-screen for streptokinase expression inhibitor project, luminescence, BacTiterGlo (AID 1915); assay type: functional, organism-based;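 note: potency for reduction of bacterial viability or growth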
[10] = system: Streptococcus sp. 'group A'; test: growth inhibition of control SK(-) GAS strain, dose response, counter-screen for streptokinase expression inhibitor project, luminescence, kanamycin, BacTiterGlo, confirmation (AID 1900); assay type: functional, organism-based
[11] = target: T8, Heat shock factor protein 1 (Mus musculus, UniProt P38532); test: inhibition of MG132-induced HSE-luciferase signal, confirmation, cell-based, NIH3T3, luminescence, dose retest (AID 2382); assay type: functional;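 note: NIH3T3 fibroblasts with HSF1-driven luciferase reporter stressed by proteasome inhibitor MG132; luminescence from HSF1-driven luciferase expression after 8 hours of MG132 stress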
T8 sequence (P38532 whole entry): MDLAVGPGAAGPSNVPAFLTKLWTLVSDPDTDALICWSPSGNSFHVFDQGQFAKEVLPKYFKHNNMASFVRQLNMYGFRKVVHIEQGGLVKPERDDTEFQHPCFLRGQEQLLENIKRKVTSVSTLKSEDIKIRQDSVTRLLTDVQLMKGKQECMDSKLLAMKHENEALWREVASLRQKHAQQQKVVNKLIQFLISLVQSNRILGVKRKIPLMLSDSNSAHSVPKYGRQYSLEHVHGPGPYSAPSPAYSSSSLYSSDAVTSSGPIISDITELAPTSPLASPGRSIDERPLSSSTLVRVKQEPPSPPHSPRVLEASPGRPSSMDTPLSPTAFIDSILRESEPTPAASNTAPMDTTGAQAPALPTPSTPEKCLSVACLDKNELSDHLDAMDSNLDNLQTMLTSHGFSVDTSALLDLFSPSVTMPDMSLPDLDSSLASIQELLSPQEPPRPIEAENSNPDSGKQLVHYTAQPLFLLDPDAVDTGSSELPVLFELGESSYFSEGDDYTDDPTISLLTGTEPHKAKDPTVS

Row | SMILES | IC50 [1] | IC50 [2] | IC50 (Caspase-3) | IC50 [3] | AC50 (HEK293) | further results
1 | CCOC(=O)c1c(C)[nH]c(N=Nc2cccc(C)c2)c1C | 5.37 µM (active) | 18 µM (active) | 40.3 µM (active) | 14.7 µM (active) | – | –
2 | CCCc1ccc(OC(=O)c2ccc(O)cc2Cl)cc1 | 8.1 µM (active) | 8.84 µM (active) | 38.4 µM (active) | 9.08 µM (active) | – | IC50 [4]: 3.76 µM (not active)
3 | Fc1ccc2[nH]c3c(N4CCN(c5ccccc5)CC4)ncnc3c2c1 | – | – | – | – | 6.19 µM (active) | AC50 [5]: 3.78 µM (active); AC50 [6]: 31.5 µM (active); AC50 [7]: 5.5 µM (active)
4 | O=C(Nc1cccnc1)c1ccc(COc2cc(Cl)ccc2Cl)o1 | – | – | – | – | – | IC50 [8]: 12.8 µM (inactive); IC50 [9]: 23.5 µM (inactive)
5 | O=C(O)CN1C(=O)/C(=C\c2ccccc2OCc2ccc(Cl)cc2Cl)SC1=S | – | – | – | – | 12.7 µM (active) | EC50 (Streptokinase A): 17.9 µM (inconclusive); IC50 (Genome polyprotein): 87.6 µM (active); EC50 (Streptococcus): 32.4 µM (active); EC50 [10]: 4.28 µM (active); EC50 [11]: 2.58 µM (active)
6 | Nc1ccccc1C#Cc1ccc([N+](=O)[O-])cc1 | 6.02 µM (active) | 31 µM (active) | 23.2 µM (active) | 80 µM (active) | – | –
7 | O=C(N/N=C/c1cccc(O)c1)c1ccc2c(c1)OCCO2 | – | – | – | – | 0.889 µM (active) | –
